Where “and” joins values, the source holds several entries; their conditions need not be identical. Identical values can stand only once. Like-named read-outs stand apart in the source and are kept apart here.
Experiments:
clinical [1] = conditions: human, in vivo, 1600 mg
CYP2C19 = CYP2C19 (Homo sapiens, UniProt P33261); assay: In vitro drug-drug interaction study, human liver microsomes; format: in vitro ADME
CYP2C9 = CYP2C9 (Homo sapiens, UniProt P11712); assay: as above; format: in vitro ADME
[2] = Effect of high fat meal on absorption of 1.6 g mesalamine granules in sachet, crossover, healthy subjects; format: in vivo, human; conditions: for Tmax following a high-fat meal: 1.6 g granulated mesalamine (2×0.8 g); for Effect of high fat meal on plasma Cmax: fed vs fasted, 80%:125% rule
[3] = Single and multiple oral dose pharmacokinetics of 1.5 g granulated mesalamine formulation, crossover, healthy subjects, fasting; conditions: for AUC(0-t): AUC0-24, plasma, n = 24; for AUC(0-t) / Cmax: mean ±SD; for Tmax: median (range)
[4] = human, in vivo, 1600 mg
[5] = Detection in human breast milk; conditions: in vivo
in vitro = conditions: plasma
CYP1A2 = target: T1, CYP1A2 (Homo sapiens, UniProt P05177); assay: In vitro drug-drug interaction study, human liver microsomes; format: in vitro ADME
T1 construct: In an in vitro study using human liver microsomes; from tissue; host or cells: human liver microsomes
T1 sequence (P05177 1-516): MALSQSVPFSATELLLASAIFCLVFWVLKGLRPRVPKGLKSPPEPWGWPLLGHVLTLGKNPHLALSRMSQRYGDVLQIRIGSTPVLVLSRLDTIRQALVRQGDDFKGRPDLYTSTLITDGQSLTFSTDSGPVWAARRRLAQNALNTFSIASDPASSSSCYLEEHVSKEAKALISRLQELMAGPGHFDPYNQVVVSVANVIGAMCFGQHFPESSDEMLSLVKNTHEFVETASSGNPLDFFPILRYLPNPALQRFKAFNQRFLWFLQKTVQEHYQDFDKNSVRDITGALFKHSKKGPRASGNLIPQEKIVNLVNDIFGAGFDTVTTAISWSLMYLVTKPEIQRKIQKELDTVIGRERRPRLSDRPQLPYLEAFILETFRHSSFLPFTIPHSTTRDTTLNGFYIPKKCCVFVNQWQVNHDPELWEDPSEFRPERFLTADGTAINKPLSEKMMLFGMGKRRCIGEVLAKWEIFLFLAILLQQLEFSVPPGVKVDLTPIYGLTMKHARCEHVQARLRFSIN

[6] = Steady state pharmacokinetics, 3 treatments of 4 days: Asacol 800 mg BID, granulated mesalamine formulation 800 mg BID and 1600 mg QD; format: in vivo, human; conditions: for Systemic exposure, QD versus BID regimen: granulated mesalamine formulation 1600 mg QD vs 800 mg BID; for Tmax: median (range)
Method: In a study of 3 treatments in 3 study periods, each separated by a minimum washout of 7 days, treatments were administered orally, and were as follows:
Subjects received treatments A, B, and C, with each administered during one of the three 4-day study treatment periods.
Each treatment regimen lasted for 4 days and was followed by at least a 7 day washout period.

CYP3A4 = CYP3A4 (Homo sapiens, UniProt P08684); assay: In vitro drug-drug interaction study, human liver microsomes; format: in vitro ADME
CYP2D6 = CYP2D6 (Homo sapiens, UniProt P10635); assay: as above; format: in vitro ADME
Ames test = format: cell-based
Method: (§1) These doses are about 2.6 and 5.4 times the recommended human dose of granulated mesalamine capsules of 1.5 g/day (30 mg/kg if 50 kg body weight assumed or 1110 mg/m^2), respectively, based on body surface area. Mesalamine was negative in the Ames test, the mouse lymphoma cell (L5178Y/TK+/−) forward mutation test, the sister chromatid exchange assay in the Chinese hamster bone marrow test, and the mouse bone marrow micronucleus test.

[7] = In vitro plasma protein binding
mice [8] = assay: Dietary carcinogenicity study; format: in vivo; conditions: 2000 mg/kg/day
Method: as §1

rats [9] = assay: Dietary carcinogenicity study; format: in vivo; conditions: doses as high as 480 mg/kg/day
Method: as §1

rats [10] = assay: Reproduction studies; conditions: rat, in vivo
rats [11] = conditions: rat, in vivo
clinical [12] = conditions: human, in vivo
rats [13] = assay: 13-week and 26-week oral toxicity studies (renal toxicity); format: in vivo
Description: (§2) Animal studies with mesalamine (13-week and 26-week oral toxicity studies in rats, and 26-week and 52-week oral toxicity studies in dogs) have shown the kidney to be the major target organ of mesalamine toxicity.

[14] = system: mouse lymphoma cell (L5178Y/TK+/−); assay: Mouse lymphoma cell forward mutation test; format: cell-based
Method: as §1

dogs = assay: 26-week and 52-week oral toxicity studies (renal toxicity); format: in vivo; conditions: oral 60 mg/kg/day (about 1.1 times the human dose) or higher
Description: as §2

rabbits = assay: Reproduction studies; conditions: rabbit, in vivo
mice [15] = conditions: mouse, in vivo
rats [16] = assay: Fertility and reproductive performance study; format: in vivo; conditions: oral doses up to 320 mg/kg
[17] = human, in vivo
[18] = system: Chinese hamster bone marrow; assay: Sister chromatid exchange assay in the Chinese hamster bone marrow test; conditions: in vivo
Method: as §1

[19] = human, plasma, oral, 1.5 g, multiple dose 1.5 g QD, after 7 days
[20] = human, plasma, oral, 1.5 g, single dose 1.5 g
[21] = MP 1600 mg QD versus MP 800 mg BID, geometric mean ratio
[22] = granulated mesalamine formulation
[23] = granulated mesalamine formulation administered BID
[24] = granulated mesalamine formulation administered QD
[25] = human, plasma, oral, 800 mg, AUCC, Day 4, after MP 800 mg BID, converted from μmol * h/L, read-out: AUC
[26] = human, plasma, oral, 800 mg, AUCC, Day 4, after Treatment A Asacol 800 mg BID, mean ± SD, read-out: AUC
[27] = human, plasma, oral, 800 mg, AUCC, Day 4, after Treatment B MP 800 mg BID, mean ± SD, read-out: AUC
[28] = human, plasma, oral, 800 mg, Day 4, after Asacol 800 mg BID, converted from μmol/L, mean ± SD
[29] = human, plasma, oral, 800 mg, Day 4, after MP 800 mg BID, converted from μmol/L, mean ± SD
[30] = human, plasma, oral, 800 mg, plasma, Day 4, after Treatment A Asacol 800 mg BID, n = 28, mean ± SD
[31] = human, plasma, oral, 800 mg, plasma, Day 4, after Treatment B MP 800 mg BID, n = 28, mean ± SD
[32] = human, plasma, oral, 1600 mg, AUC0-24, Day 4, after MP 1600 mg QD, converted from μmol * h/L, read-out: AUC
[33] = human, plasma, oral, 1600 mg, AUC0-24, Day 4, after Treatment C MP 1600 mg QD, mean ± SD, read-out: AUC
[34] = human, plasma, oral, 1600 mg, Day 4, after MP 1600 mg QD, converted from μmol/L, mean ± SD
[35] = human, plasma, oral, 1600 mg, plasma, Day 4, after Treatment C MP 1600 mg QD, n = 28, mean ± SD
[36] = human, plasma, oral, Day 4, after MP 800 mg BID, time from first dose, read-out: Tmax
[37] = human, plasma, oral, Day 4, after MP 1600 mg QD, read-out: Tmax

CYP2D6, sequence (P10635 whole entry): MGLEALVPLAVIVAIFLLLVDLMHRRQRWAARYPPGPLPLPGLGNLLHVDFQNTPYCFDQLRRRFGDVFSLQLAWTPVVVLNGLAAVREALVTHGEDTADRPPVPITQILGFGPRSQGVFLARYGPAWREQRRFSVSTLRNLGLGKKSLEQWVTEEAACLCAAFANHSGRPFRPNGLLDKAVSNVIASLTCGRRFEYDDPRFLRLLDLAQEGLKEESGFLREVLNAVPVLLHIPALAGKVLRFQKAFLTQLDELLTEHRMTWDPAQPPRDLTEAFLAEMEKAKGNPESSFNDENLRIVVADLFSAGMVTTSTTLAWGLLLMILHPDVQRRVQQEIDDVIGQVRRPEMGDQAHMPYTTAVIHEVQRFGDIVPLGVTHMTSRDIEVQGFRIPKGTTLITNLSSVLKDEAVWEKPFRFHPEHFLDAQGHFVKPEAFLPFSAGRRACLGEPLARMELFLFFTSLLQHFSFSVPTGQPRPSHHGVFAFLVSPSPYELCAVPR
CYP3A4, sequence (P08684 whole entry): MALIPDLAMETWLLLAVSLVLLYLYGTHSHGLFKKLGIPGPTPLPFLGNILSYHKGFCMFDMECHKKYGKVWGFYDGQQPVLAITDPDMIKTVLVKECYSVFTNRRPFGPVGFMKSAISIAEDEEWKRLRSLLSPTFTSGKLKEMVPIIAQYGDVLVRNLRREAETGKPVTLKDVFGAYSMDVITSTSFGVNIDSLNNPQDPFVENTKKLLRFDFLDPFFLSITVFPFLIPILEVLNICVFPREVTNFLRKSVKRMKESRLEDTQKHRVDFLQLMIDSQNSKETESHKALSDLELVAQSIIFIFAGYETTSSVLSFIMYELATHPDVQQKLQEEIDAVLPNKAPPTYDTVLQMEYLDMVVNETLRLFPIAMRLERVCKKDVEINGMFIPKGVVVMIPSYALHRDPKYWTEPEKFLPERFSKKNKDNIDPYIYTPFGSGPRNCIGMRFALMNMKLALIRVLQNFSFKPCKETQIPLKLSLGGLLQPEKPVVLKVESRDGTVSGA
CYP2C19, sequence (P33261 whole entry): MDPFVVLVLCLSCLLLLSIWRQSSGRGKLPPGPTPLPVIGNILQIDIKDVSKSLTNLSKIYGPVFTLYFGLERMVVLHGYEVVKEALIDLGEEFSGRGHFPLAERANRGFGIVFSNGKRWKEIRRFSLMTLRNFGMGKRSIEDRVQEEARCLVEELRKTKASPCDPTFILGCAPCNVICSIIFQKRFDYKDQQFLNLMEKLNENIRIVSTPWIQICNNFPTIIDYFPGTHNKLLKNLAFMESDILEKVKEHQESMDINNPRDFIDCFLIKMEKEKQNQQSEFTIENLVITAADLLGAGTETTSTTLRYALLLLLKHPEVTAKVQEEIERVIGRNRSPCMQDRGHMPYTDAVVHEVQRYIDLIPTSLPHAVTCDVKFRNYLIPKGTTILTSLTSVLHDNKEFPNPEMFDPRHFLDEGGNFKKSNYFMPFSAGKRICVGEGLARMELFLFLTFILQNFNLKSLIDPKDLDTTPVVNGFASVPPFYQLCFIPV
CYP2C9, sequence (P11712 whole entry): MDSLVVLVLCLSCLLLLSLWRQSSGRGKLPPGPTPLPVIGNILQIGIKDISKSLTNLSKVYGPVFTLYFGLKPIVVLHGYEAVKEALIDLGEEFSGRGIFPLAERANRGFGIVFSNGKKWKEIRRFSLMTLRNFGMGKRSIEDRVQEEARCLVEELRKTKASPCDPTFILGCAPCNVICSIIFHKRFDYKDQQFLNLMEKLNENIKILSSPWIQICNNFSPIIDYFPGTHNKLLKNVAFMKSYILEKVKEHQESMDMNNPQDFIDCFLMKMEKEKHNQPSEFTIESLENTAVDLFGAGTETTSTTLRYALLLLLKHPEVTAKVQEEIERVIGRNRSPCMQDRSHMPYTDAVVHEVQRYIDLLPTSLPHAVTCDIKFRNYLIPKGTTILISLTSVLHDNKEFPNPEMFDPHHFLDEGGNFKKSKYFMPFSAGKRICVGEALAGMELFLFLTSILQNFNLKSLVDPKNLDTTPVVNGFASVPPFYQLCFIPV

## CC(=O)Nc1ccc(O)c(C(=O)O)c1 [N-Ac-5-ASA, N-acetyl-5-aminosalicylic acid]
Clinical [1]
  half-life: 10.1 h
CYP2C19
  Inhibition of CYP2C19: not to inhibit
CYP2C9
  Inhibition of CYP2C9: not to inhibit
[2]
  Tmax following a high-fat meal: prolonged
[2]; 1.6 g granules
  Effect of high fat meal on overall (rate and) extent of absorption: not affected
  Effect of high fat meal on plasma Cmax: equivalent
[3]; 1.5 g granulated mesalamine formulation
  Increase in systemic exposure (AUC0-24) at steady state compared with a single dose: 1.7 fold
[3]; human, plasma, oral, 1.5 g
  AUC(0-inf): 51000 ± 23000 ng·h/mL
[3]; [19]
  AUC(0-t): 37000 ± 9000 ng·h/mL
  Tmax: 5 h
[3]; human, plasma, oral, 1.5 g, single dose 1.5 g granulated mesalamine formulation, fasting
  AUC(0-t): 26000 ± 6000 ng·h/mL
[3]; human, plasma, oral, 1.5 g, plasma, multiple dose 1.5 g QD, after 7 days
  Cmax: 3400 ± 900 ng/mL
[3]; [20]
  Cmax: 2800 ± 800 ng/mL
  Tmax: 4 h
[3]; human, plasma, oral, 1.5 g, Mean half-lives, following single and multiple doses of granulated mesalamine formulation
  half-life: 12 to 14 h
[3]; human, plasma, oral, 1.5 g, t1/2, multiple dose 1.5 g QD, after 7 days, harmonic mean (pseudo SD)
  half-life: 14 ± 10 h
[3]; human, plasma, oral, 1.5 g, t1/2, single dose 1.5 g, harmonic mean (pseudo SD)
  half-life: 12 ± 11 h
[4]
  T1/2: 10.05 h
[5]
  Concentration detected in human breast milk: higher concentrations
In vitro
  fraction unbound at 2.5 μg/mL: 0.22
CYP1A2
  Inhibition of CYP1A2: not to inhibit
[6]; [21]
  AUC C/B Ratio (90% CI): 93 (78, 112)
  Cmax C/B Ratio (90% CI): 118 (98, 143)
[6]; [22]
  Steady state plasma concentrations as measured by Cmax, QD compared to BID: higher
[6]
  Systemic exposure, QD versus BID regimen: comparable
[6]; [23]
  Time to maximum drug concentrations, mean: 11.68 h
[6]; [24]
  Time to maximum drug concentrations, mean: 5.21 h
[6]; granulated mesalamine formulation, steady state
  Cmax ratio, QD compared to BID: 118%
[6]; human, plasma, oral, 800 mg, AUC, AUCC, Day 4, after Asacol 800 mg BID, converted from μmol * h/L
  AUC: 30700 ± 22200 ng·h/mL
[6]; [25]
  AUC: 46400 ± 15400 ng·h/mL
[6]; [26]
  AUC: 158 ± 114 µM·h
[6]; [27]
  AUC: 238 ± 79.1 µM·h
[6]; [28]
  Cmax: 2340 ± 1800 ng/mL
[6]; [29]
  Cmax: 3610 ± 1230 ng/mL
[6]; [30]
  Cmax: 12 ± 9.22 µM
[6]; [31]
  Cmax: 18.5 ± 6.31 µM
[6]; [32]
  AUC: 45800 ± 19700 ng·h/mL
[6]; [33]
  AUC: 235 ± 101 µM·h
[6]; [34]
  Cmax: 4500 ± 1820 ng/mL
[6]; [35]
  Cmax: 23.1 ± 9.35 µM
[6]; [36]
  Tmax: 16 h
[6]; [37]
  Tmax: 3 h
CYP3A4
  Inhibition of CYP3A4: not to inhibit
CYP2D6
  Inhibition of CYP2D6: not to inhibit

## Nc1ccc(O)c(C(=O)O)c1 [Mesalamine (5-ASA), 5-aminosalicylic acid]
Clinical [1]
  half-life: 5.49 h
CYP2C19
  Inhibition of CYP2C19: not to inhibit
CYP2C9
  Inhibition of CYP2C9: not to inhibit
[2]; 1.6 g granulated mesalamine
  Increase in AUC0-inf following a high-fat meal: 11%
  Increase in AUC0-last following a high-fat meal: 16%
[2]
  Tmax following a high-fat meal: prolonged
[2]; 1.6 g granules
  Increase in cumulative urinary excretion with a high fat meal: 27%
[2]; 1.6 g granules, listed as 5-ASA
  Effect of high fat meal on plasma Cmax: did not affect
[2]; 1.6 g granules, listed as mesalamine
  Effect of high fat meal on plasma Cmax: equivalent
Ames test
  Ames test result: negative
[7]
  fraction unbound at 2.5 μg/mL: 0.57
[3]; single dose 1.5 g, harmonic mean (pseudo SD)
  t1/2: 9 ± 7 h
[4]
  T1/2: 5.49 h
Mice [8]
  Carcinogenicity: not carcinogenic
Rats [9]
  Carcinogenicity: not carcinogenic
[5]
  Concentration detected in human breast milk: low concentrations
CYP1A2
  Inhibition of CYP1A2: not to inhibit
Rats [10]
  Reproduction study finding: no evidence of impaired fertility or harm to the fetus
Rats [11]
  Lethal single oral dose: 1800 mg/kg
Clinical [12]
  AUC(0-inf): 14000 ± 5000 ng·h/mL
Clinical [12]; AUC0-24
  AUC(0-t): 11000 ± 5000 ng·h/mL
Clinical [12]; Cmax
  Cmax: 2100 ± 1100 ng/mL
Clinical [12]; Tmax
  Tmax: 4 h
Rats [13]; oral 40 mg/kg/day (about 0.20 times the human dose)
  Renal finding: minimal to slight tubular injury
Rats [13]; oral 160 mg/kg/day (about 0.90 times the human dose) or higher
  Renal finding: renal lesions including tubular degeneration, tubular mineralization, and papillary necrosis
[14]
  Forward mutation test result: negative
[6]; Day 4, after Asacol 800 mg BID
  Tmax: 16.0 (0, 24.0) h and 16.0 (0, 24.0)^e h
[6]; [22]
  Steady state plasma concentrations as measured by Cmax, QD compared to BID: higher
[6]
  Systemic exposure, QD versus BID regimen: comparable
[6]; [23]
  Time to maximum drug concentrations, mean: 11.00 h
[6]; [24]
  Time to maximum drug concentrations, mean: 3.96 h
[6]; human, plasma, oral, 800 mg, AUCC, Day 4, after Asacol 800 mg BID, converted from μmol * h/L, read-out: AUC
  AUC: 8.34 ± 7.5 ng·h/mL
[6]; [25]
  AUC: 14800 ± 5500 ng·h/mL
[6]; [26]
  AUC: 54.5 ± 49 µM·h
[6]; [27]
  AUC: 97 ± 35.9 µM·h
[6]; [28]
  Cmax: 1060 ± 1370 ng/mL
[6]; [29]
  Cmax: 1820 ± 710 ng/mL
[6]; [30]
  Cmax: 6.93 ± 8.99 µM
[6]; [31]
  Cmax: 11.9 ± 4.65 µM
[6]; [32]
  AUC: 14800 ± 6490 ng·h/mL
[6]; [33]
  AUC: 96.5 ± 42.4 µM·h
[6]; [34]
  Cmax: 3040 ± 1670 ng/mL
[6]; [35]
  Cmax: 19.9 ± 10.9 µM
[6]; [36]
  Tmax: 16 h
[6]; [37]
  Tmax: 3 h
dogs
  Renal finding: renal lesions including tubular atrophy, interstitial cell infiltration, chronic nephritis, and papillary necrosis
rabbits
  Reproduction study finding: no evidence of impaired fertility or harm to the fetus
Mice [15]
  Lethal single oral dose: 800 mg/kg
Rats [16]
  Effect on fertility or reproductive performance: no effect
[17]
  Increase in systemic exposure (AUC0-24) at steady state compared with a single dose: 1.5 fold
CYP3A4
  Inhibition of CYP3A4: not to inhibit
CYP2D6
  Inhibition of CYP2D6: not to inhibit
[18]
  Sister chromatid exchange assay result: negative
